Measured values as given in ChEMBL document CHEMBL4184243, “Optimization of antimalarial, and anticancer activities of (E)-methyl 2-(7-chloroquinolin-4-ylthio)-3-(4-hydroxyphenyl) acrylate” (Bioorg Med Chem, 2018).

Tests used:
[1] = system: Mus musculus; assay: Toxicity in Balb-C mouse infected with chloroquine-susceptible Plasmodium berghei ANKA assessed as effect on body weight at 20 mg/kg, ip administered once daily for 4 days measured at 30 days post infection; format: organism-based; settings: in vivo, 720 h
[2] = system: HL-60; assay: Induction of apoptosis in human HL60 cells assessed as late apoptotic cells at 5 uM after 24 hrs by Annexin-V-FITC/propidium iodide staining based flow cytometric analysis (reference value: 0.85 +/- 0.13 %); format: functional
[3] = system: Plasmodium berghei; assay: Antimalarial activity against chloroquine-susceptible Plasmodium berghei ANKA infected in Balb-C mouse assessed as mean survival days at 10 mg/kg, ip administered once daily for 4 days (reference value: 8.4 +/- 0.15 day); format: functional
[4] = system: Jurkat E6.1; assay: Induction of apoptosis in human Jurkat E6-1 cells assessed as late apoptotic cells at 5 uM after 24 hrs by Annexin-V-FITC/propidium iodide staining based flow cytometric analysis (reference value: 0.73 +/- 0.14 %); format: functional
[5] = system: Lymphocyte; assay: Cytotoxicity against human lymphocytes after 24 to 48 hrs by MTT assay; format: cell-based
[6] = system: Mus musculus; assay: Toxicity in Balb-C mouse infected with chloroquine-susceptible Plasmodium berghei ANKA assessed as survival at 20 mg/kg, ip administered once daily for 4 days measured at 30 days post infection; format: organism-based; settings: in vivo, 720 h
[7] = Selectivity index, ratio of IC50 for human lymphocytes to IC50 for human Jurkat E6-1 cells; format: toxicity; settings: human lymphocytes versus Jurkat E6-1 cells, read-out: Ratio IC50
[8] = system: Jurkat E6.1; assay: Cytotoxicity against human Jurkat E6-1 cells after 24 hrs by MTT assay; format: functional, cell-based; settings: Jurkat E6.1, 24 h
[9] = system: HL-60; assay: Induction of apoptosis in human HL60 cells assessed as necrotic cells at 5 uM after 24 hrs by Annexin-V-FITC/propidium iodide staining based flow cytometric analysis (reference value: 1.96 +/- 0.33 %); format: functional
[10] = system: HL-60; assay: Induction of apoptosis in human HL60 cells assessed as early apoptotic cells at 5 uM after 24 hrs by Annexin-V-FITC/propidium iodide staining based flow cytometric analysis (reference value: 0.36 +/- 0.02 %); format: functional
[11] = Selectivity index, ratio of IC50 for human lymphocytes to IC50 for human HL60 cells; format: toxicity; settings: human lymphocytes versus HL60 cells, read-out: Ratio IC50
[12] = Safety index, ratio of test compound IC50 to doxorubicin IC50 for human lymphocytes; format: ADME, cell-based, Lymphocyte; settings: read-out: Ratio IC50
[13] = system: Plasmodium berghei; assay: Antimalarial activity against chloroquine-susceptible Plasmodium berghei ANKA infected in Balb-C mouse assessed as parasitemia at 10 mg/kg, ip administered once daily for 4 days measured post last dose by Giemsa staining based method (reference value: 65.8 +/- 4.38%); format: functional
[14] = system: Jurkat E6.1; assay: Induction of apoptosis in human Jurkat E6-1 cells assessed as early apoptotic cells at 5 uM after 24 hrs by Annexin-V-FITC/propidium iodide staining based flow cytometric analysis (reference value: 0.5 +/- 0.07 %); format: functional
[15] = system: Jurkat E6.1; assay: Induction of apoptosis in human Jurkat E6-1 cells assessed as necrotic cells at 5 uM after 24 hrs by Annexin-V-FITC/propidium iodide staining based flow cytometric analysis (reference value: 1.26 +/- 0.24 %); format: functional
[16] = Inhibition of beta-hematin formation assessed as reduction in acetate buffer-initiated hemozoin formation measured after 48 hrs; parameters: concentration or dose not given beside the values; settings: concentration not given here
[17] = system: HL-60; assay: Cytotoxicity against human HL60 cells after 24 hrs by MTT assay; format: functional, cell-based; settings: HL-60, 24 h

COC(=O)/C(=C\c1ccc(OC(=O)c2ccc(OC)c(OC)c2OC)cc1)Sc1ccnc2cc(Cl)ccc12
Activity [1]: Non-Toxic | Activity [2]: 7.38% | MSD [3]: 29.83 days | Activity [4]: 4.12% | IC50 [5]: 22400 nM | Activity [6]: Non-Toxic | selectivity ratio [7]: 9.27 | IC50 [8]: 2410 nM | Activity [9]: 62.1% | Activity [10]: 0.75% | selectivity ratio [11]: 10.8 | selectivity ratio [12]: 5.1 | Activity [13]: 1% | Activity [14]: 0.58% | Activity [15]: 55.6% | inhibition [16]: 85.1% | IC50 [17]: 2080 nM
